Test results taken from US20230265068A1, “TRANSIENT RECEPTOR POTENTIAL CANONICAL 3 INHIBITORS AND METHODS OF USE THEREOF” (University of Tennessee Research Foundation, priority 2020, published 2023).

Target: T1, TRPC3 (Homo sapiens, UniProt Q13507)
T1 sequence (Q13507 1-921): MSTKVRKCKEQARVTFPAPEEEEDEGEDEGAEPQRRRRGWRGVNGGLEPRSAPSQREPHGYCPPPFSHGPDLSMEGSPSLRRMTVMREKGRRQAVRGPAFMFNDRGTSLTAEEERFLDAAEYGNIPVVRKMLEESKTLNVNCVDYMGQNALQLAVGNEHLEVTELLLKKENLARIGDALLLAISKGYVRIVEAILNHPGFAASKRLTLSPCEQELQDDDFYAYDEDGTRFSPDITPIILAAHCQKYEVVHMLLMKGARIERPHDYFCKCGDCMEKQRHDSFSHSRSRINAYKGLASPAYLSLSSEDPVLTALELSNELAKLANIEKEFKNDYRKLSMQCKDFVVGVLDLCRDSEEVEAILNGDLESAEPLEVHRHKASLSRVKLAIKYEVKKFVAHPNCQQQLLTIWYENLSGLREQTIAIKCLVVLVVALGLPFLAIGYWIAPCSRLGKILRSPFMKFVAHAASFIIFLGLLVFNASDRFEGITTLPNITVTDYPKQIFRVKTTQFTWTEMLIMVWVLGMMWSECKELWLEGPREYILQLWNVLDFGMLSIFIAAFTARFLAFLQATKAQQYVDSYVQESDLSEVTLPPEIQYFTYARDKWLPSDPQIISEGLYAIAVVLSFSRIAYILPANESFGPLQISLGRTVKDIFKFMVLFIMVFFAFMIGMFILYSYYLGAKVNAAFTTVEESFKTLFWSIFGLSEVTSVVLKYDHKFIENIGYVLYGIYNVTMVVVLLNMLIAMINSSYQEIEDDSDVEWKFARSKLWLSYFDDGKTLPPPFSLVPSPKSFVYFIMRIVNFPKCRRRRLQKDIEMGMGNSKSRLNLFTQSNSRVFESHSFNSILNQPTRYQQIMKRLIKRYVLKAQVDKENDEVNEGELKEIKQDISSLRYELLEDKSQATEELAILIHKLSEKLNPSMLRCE
Test: whole-cell patch clamp of HEK293 cells transfected with hTRPC3, currents activated by GSK1702934A
Assay type: cell-based
Parameters: expressed in transfected cells; host or cells: HEK293 (CRL-1573), transient transfection, pMO vector
Settings: for inhibition at 10 µM: 10 μM compound in presence of agonist GSK1702934A, HEK293 whole-cell peak current, read-out: hTRPC3 % Inhibition at 10 μM (mean ± SEM); for IC50: agonist GSK1702934A, HEK293 whole-cell patch clamp, read-out: hTRPC3 IC50 (μM, mean ± SEM)
Description: Human embryonic kidney 293 (HEK293; catalog number CRL-1573) cells were cultured in Dulbecco's modified Eagle's medium (Invitrogen) supplemented with 10% fetal bovine serum and 1% penicillin-streptomycin at 37° C. and 5% CO2. Constructs cloned in pMO (a pcDNA3-modified vector) were co-transfected with GFP-pMO, using Lipofectamine 2000 (Invitrogen) according to the manufacturer's instructions. Macroscopic currents in the whole-cell patch clamp configuration were recorded 18-24 h post-transfection. The extracellular solution contained 140 mM NaCl, 6 mM KCl, 2 mM MgCl2, 10 mM HEPES, and 10 mM glucose (pH 7.4). Pipettes were made of borosilicate glass (outer diameter, 1.5 mm; inner diameter, 1.10 mm; Sutter Instruments) and fire-polished with a resistance between 2.8 and 4.0 megaohms when filled with an intracellular solution that contained 140 mM CsCl, 5 mM EGTA, and 10 mM HEPES, pH 7.2. Currents were recorded with a Multiclamp 700B amplifier (Molecular Devices) using a 1-s ramp from −100 to 100 mV. Agonist and antagonists perfused were dissolved in the bath solution prior experiments: TRP channel agonists Allyl isothiocyanate (AITC; TRPA1), capsaicin (TRPV1), and menthol (TRPM8) were obtained from Sigma, GSK1016790A (TRPV4) from Cayman chemicals, and GSK1702934A (TRPC3, TRPC6 and TRPC7) from Tocris Bioscience. Antagonist Pyr3 was obtained from Tocris Bioscience, all other antagonists were synthesized in house. Data were acquired with a sampling rate of 20 kHz, low-pass filtered (10 kHz), and analyzed offline using Clampfit v10.4.2.0 (Molecular Devices).
Electrophysiology results were expressed as means±SD. Data were plotted, and sigmoidal fitting was done using OriginPro (from OriginLab), with the following Boltzmann function:
Using the patch clamp technique in the whole-cell configuration, compounds were screened by challenging hTRPC3 overexpressing HEK293 cells with GSK1702934A to activate TRPC3 and each of the synthesized compounds (10 μM) individually in the presence of the agonist.
To avoid tachyphylaxis and determine the IC50 of compound 22, each point of the dose response curve (FIG. 1B) was done individually on a cell and exchanging coverslips between cells. […] FIGS. 1D-1I show the inhibition of TRPC3-mediated currents by compound 22 and Pyr3 (serving as the reference control). […] Similar results were obtained when OAG was used as the agonist (data not shown).

Row | inhibition at 10 µM [%] | IC50 [µM] | SMILES
1 | 92.9 ± 6.78 | 0.29 ± 0.05 | CCc1nnc(-c2cnn(-c3ccc(-n4ccc(Cl)c(Cl)c4=O)cc3)c2C(F)(F)F)o1 [Compound 46, 3,4-dichloro-1-(4-(4-(5-ethyl-1,3,4-oxadiazol-2-yl)-5-(trifluoromethyl)-1H-pyrazol-1-yl)phenyl)pyridin-2(1H)-one]
2 | 89.4 ± 6.45 |  | CCNC(=O)c1cnn(-c2ccc(-n3ccc(C(F)(F)F)c(Cl)c3=O)cc2)c1C(F)(F)F [Compound 27, 1-(4-(3-chloro-2-oxo-4-(trifluoromethyl)pyridin-1(2H)-yl)phenyl)-N-ethyl-5-(trifluoromethyl)-1H-pyrazole-4-carboxamide]
3 | 49.5 ± 3.91 |  | CCOC(=O)c1cnn(-c2ccc(-n3ccccc3=O)cc2)c1C(F)(F)F [Compound 1, Ethyl 1-(4-(2-oxopyridin-1(2H)-yl)phenyl)-5-(trifluoromethyl)-1H-pyrazole-4-carboxylate]
4 | 72.3 ± 2.88 |  | CCNC(=O)c1cnn(-c2ccc(-n3ccc(Cl)c(Cl)c3=O)cc2)c1Cl [Compound 51, 5-chloro-1-(4-(3,4-dichloro-2-oxopyridin-1(2H)-yl)phenyl)-N-ethyl-1H-pyrazole-4-carboxamide]
5 | 96 ± 1.37 | 0.35 ± 0.09 | CCNC(=O)c1cnn(-c2ccc(-n3ccc(O)c(Cl)c3=O)cc2)c1C(F)(F)F [Compound 32, 1-(4-(3-chloro-4-hydroxy-2-oxopyridin-1(2H)-yl)phenyl)-N-ethyl-5-(trifluoromethyl)-1H-pyrazole-4-carboxamide]
6 | 74.8 ± 5.65 |  | O=C(NC1CC1)c1cnn(-c2ccc(-n3ccc(Cl)c(Cl)c3=O)cc2)c1C(F)(F)F [Compound 44, N-cyclopropyl-1-(4-(3,4-dichloro-2-oxopyridin-1(2H)-yl)phenyl)-5-(trifluoromethyl)-1H-pyrazole-4-carboxamide]
7 | 76 ± 6.65 |  | CCNC(=O)c1cnn(-c2ccc(-n3ccc(Cl)c(Br)c3=O)cc2)c1C(F)(F)F [Compound 25, 1-(4-(3-bromo-4-chloro-2-oxopyridin-1(2H)-yl)phenyl)-N-ethyl-5-(trifluoromethyl)-1H-pyrazole-4-carboxamide]
8 | 71.1 ± 2.66 |  | CCOC(=O)c1cnn(-c2ccc(-n3ccc(Cl)cc3=O)cc2)c1C(F)(F)F [Compound 2, Ethyl 1-(4-(4-chloro-2-oxopyridin-1(2H)-yl)phenyl)-5-(trifluoromethyl)-1H-pyrazole-4-carboxylate]
9 | 51.5 ± 6 |  | CCNC(=O)c1cnn(-c2ccc(-n3cc(Cl)c(Cl)cc3=O)cc2)c1C(F)(F)F [Compound 23]
10 | 52.1 ± 8.41 |  | CC(=O)c1cnn(-c2ccc(-n3cc(Cl)c(C)c(Cl)c3=O)cc2)c1C(F)(F)F [Compound 72, 1-(4-(4-acetyl-5-(trifluoromethyl)-1H-pyrazol-1-yl)phenyl)-3,5-dichloro-4-methylpyridin-2(1H)-one]
11 | 50.5 ± 5.49 |  | CCOC(=O)c1cnn(-c2ccc(-n3cc(Cl)cc(Cl)c3=O)cc2)c1C(F)(F)F [Compound 6, Ethyl 1-(4-(3,5-dichloro-2-oxopyridin-1(2H)-yl)phenyl)-5-(trifluoromethyl)-1H-pyrazole-4-carboxylate]
12 | 97.96 ± 0.83 | 0.09 ± 0.02 | CCNCc1cnn(-c2ccc(-n3ccc(Cl)c(Cl)c3=O)cc2)c1C(F)(F)F [Compound 74, 3,4-dichloro-1-(4-(4-((ethylamino)methyl)-5-(trifluoromethyl)-1H-pyrazol-1-yl)phenyl)pyridin-2(1H)-one]
13 | 40.2 ± 10.3 |  | NC(=O)c1cnn(-c2ccc(-n3ccc(Cl)c(Cl)c3=O)cc2)c1C(F)(F)F [Compound 37, 1-(4-(3,4-dichloro-2-oxopyridin-1(2H)-yl)phenyl)-5-(trifluoromethyl)-1H-pyrazole-4-carboxamide]
14 | 47.1 ± 8.29 |  | CCNC(=O)c1nnn(-c2ccc(-n3ccc(Cl)c(Cl)c3=O)cc2)c1C(F)(F)F [Compound 61, 1-(4-(3,4-dichloro-2-oxopyridin-1(2H)-yl)phenyl)-N-ethyl-5-(trifluoromethyl)-1H-1,2,3-triazole-4-carboxamide]
